Measured values published in publication PMC11220827 (Frontiers in Pharmacology, 2024).
“And” between values parts separate entries of the source, which are not always exact repeats. Identical values can stand only once.

How the values were obtained:
ERα receptor = ERα receptor (Homo sapiens, UniProt P03372)
ERβ Human Estrogen NHR = target: T1, ERβ Human Estrogen NHR (Homo sapiens, UniProt Q92731); test: biochemical; format: binding
T1 construct: Panlabs (named as assay provider)
Description: Chemicals that are flagged for a target are tested in follow-up dose-response assays to establish potency of the interaction.
(§1) Relative light units (RLUs) of the CALUX assays were analysed as follows. For agonist assays,
(§2) background values (exposure to DMSO only) were subtracted, and the maximum activity of the
(§3) assay’s reference compound was set to 100%. For antagonist assays, the basal signal (exposure to fixed concentration of agonist only) was set to 100%. Activity of the samples was scaled accordingly,
(§4) resulting in expression of the data as “percentage of maximum reference response”. Graphs were
(§5) generated using the statistical software package GraphPad Prism V5.03. Using these graphs, lowest
effect concentrations (LOECs) and PC50 concentrations were determined; LOEC is defined as the
maximum reference compound activity for agonist assays, and 20% of the maximum reference
compound activity for antagonist assays. The PC50 is defined as the concentration where the activity
of the sample equals 50% of the maximum activity of the assay’s reference compound.
the test compound was divided by the amount of estrogens and androgens produced by the solvent
control-exposed cells. A sample was considered ‘active’ if it decreased the hormone production 0.8-
Pharmacology profiling assays
targets. The list of targets included the original panel of 44 targets (including receptors, ion channels,
transporters and enzymes) recommended by 4 major pharmaceutical companies as significant
reasoned to link to pathological effects.
are considered to represent significant effects (i.e. a “hit”).
around the control level. For several targets, additional concentration effect assays were conducted to
determine the potency (IC50). The concentrations tested (in duplicate) ranged between 30 nM and 100

Estrogen ERα (h) = Estrogen ERα (h) (Homo sapiens, UniProt P03372); conditions: pharmacology profiling; LOEC = 10% of maximum reference compound activity
TRβ = target: T2, TRβ (Homo sapiens, UniProt P10828)
T2 sequence (P10828 1-461): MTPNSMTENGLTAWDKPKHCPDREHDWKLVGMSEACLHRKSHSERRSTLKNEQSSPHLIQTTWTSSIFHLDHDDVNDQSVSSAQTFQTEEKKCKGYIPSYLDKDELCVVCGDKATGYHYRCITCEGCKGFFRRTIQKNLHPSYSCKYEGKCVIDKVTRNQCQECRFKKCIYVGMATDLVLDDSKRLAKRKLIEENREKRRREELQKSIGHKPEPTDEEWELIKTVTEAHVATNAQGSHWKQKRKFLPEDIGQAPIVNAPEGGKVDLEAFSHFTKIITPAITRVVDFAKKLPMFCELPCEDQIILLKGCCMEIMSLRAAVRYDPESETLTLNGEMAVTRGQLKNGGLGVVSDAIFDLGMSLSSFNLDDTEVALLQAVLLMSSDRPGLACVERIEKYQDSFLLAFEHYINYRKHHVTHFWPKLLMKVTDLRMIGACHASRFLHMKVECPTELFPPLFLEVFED
Description: using the U2-OS based CALUX cytotox bioassay. The cytotoxicity of each test chemical was assessed using the U2-OS based cytotoxicity CALUX bioassay. Concentrations causing >20% reduction of luminescence were considered cytotoxic.
cytotoxicity (relative induction in the cytotoxicity CALUX bioassay > 80%) were used for final
evaluation of analysis results.
induction in the cytotox CALUX bioassay > 80%) were used for final evaluation of analysis results.
All analysis results were expressed in molar (M) final in well.
For determination of the (anti-)ERα, (anti-)AR and (anti-)TRβ CALUX activities, CALUX cells were
seeded in assay medium. Following exposure of the CALUX cells to serial dilutions of the
compounds in triplicate for 24 h, the induction of luciferase production was quantified by measuring
luminescence following addition of the substrate luciferin. For antagonist assays, a fixed
concentration of assay agonist was present in each well, to generate a basal signal. On each plate, a
complete calibration curve for each respective bioassay was also analysed using the relevant reference
compounds. For the analyses in the presence of rat liver S9, 0.03% (v/v) of PB/BNF induced rat liver
S9 mix (including NADPH and an NADPH-regenerating system) was added to the cells directly after
addition of the compounds, which remained there for the duration of the exposure period (24 h) (van
as §1, §2, §3, §4, §5
effect concentrations (LOECs) and PC50 concentrations were determined; LOEC is defined as the […]

Row | SMILES | LOEC, ERα CALUX assay (ERα receptor) [nM] | ERα receptor LOEC, +S9 (ERα receptor; +S9 (rat liver)) [Log M] | LOEC, ERα + S9 (ERα receptor; CALUX ERα, with rat liver S9) | LOEC, ERα − S9 (ERα receptor; CALUX ERα, without S9) [nM] | NOEC (in vitro PoD) = ERα CALUX LOEC divided by 3 (ERα receptor; estimated from LOEC + S9) [nM] | ERα receptor LOEC, −S9 (ERα receptor; −S9) [Log M] | ERβ LOEC (binding to receptor) (ERβ Human Estrogen NHR; pharmacology profiling, LOEC = 10% of maximum reference compound activity) | inhibition at 10 µM (ERβ Human Estrogen NHR; read-out: ERβ Human Estrogen NHR Binding (Agonist): % inhibition @10 µM) [%] | ERα LOEC (binding to receptor) (Estrogen ERα (h)) | Anti-TRß antithyroid LOEC, +S9 (TRβ; +S9 (rat liver)) [Log M] | Anti-TRß antithyroid LOEC, −S9 (TRβ; −S9) [Log M]
1 | O=c1c(-c2ccc(O)cc2)coc2cc(O)ccc12 [Daidzein, DAIDZEIN] | 110 ± 18 | −7.0 | 100 ± 0.0 nM and 100 ± 0 nM and 100 nM | 110 | 33 | −6.9 | 3.25 nM and 3.2 nM | 100 | 35 nM and 35.2 nM |  | 
2 | O=c1c(-c2ccc(O)cc2)coc2cc(O)cc(O)c12 [Genistein, 5,7-DIHYDROXY-3-(4-HYDROXYPHENYL)-4-BENZOPYRONE] |  |  |  |  |  |  |  |  |  | >−5 | >−5
